Results on 3 molecules are retold here after patent publication US20110092505A1, “ORGANIC COMPOUNDS” (priority 2008, published 2011).

Where two headings read alike, the source gives them in different places.

For assay [1], the target named is T1, protein kinase D2 (PKD2) (Homo sapiens, UniProt Q9BZL6).
T1 construct: This assay is performed with full length wild-type enzyme purchase from Invitrogen; purchased Invitrogen
T1 sequence (Q9BZL6 1-878): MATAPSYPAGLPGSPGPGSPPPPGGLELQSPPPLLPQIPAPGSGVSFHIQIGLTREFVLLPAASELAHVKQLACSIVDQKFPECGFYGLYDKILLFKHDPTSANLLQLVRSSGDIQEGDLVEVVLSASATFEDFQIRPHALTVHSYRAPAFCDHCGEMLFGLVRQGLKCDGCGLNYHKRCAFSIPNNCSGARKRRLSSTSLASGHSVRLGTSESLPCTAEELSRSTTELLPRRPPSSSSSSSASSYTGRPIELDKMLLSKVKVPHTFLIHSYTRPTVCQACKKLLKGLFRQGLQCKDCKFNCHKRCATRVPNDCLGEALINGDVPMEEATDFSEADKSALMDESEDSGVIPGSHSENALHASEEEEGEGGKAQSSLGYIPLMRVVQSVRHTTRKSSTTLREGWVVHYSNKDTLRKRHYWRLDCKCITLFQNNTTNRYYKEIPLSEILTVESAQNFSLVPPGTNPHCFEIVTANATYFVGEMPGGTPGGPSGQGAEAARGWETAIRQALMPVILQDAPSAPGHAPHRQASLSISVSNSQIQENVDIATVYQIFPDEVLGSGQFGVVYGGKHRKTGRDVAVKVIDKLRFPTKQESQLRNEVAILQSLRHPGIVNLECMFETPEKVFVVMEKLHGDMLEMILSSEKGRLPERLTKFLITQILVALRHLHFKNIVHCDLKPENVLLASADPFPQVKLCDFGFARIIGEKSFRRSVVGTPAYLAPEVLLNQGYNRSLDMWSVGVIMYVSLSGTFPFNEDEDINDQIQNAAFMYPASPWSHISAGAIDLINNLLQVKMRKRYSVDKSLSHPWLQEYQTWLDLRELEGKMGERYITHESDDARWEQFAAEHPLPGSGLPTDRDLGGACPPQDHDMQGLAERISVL
The experiment in a line: PKD2 TR-FRET (LANCE) kinase assay. The class given is biochemical. As to conditions: full length wild-type enzyme, 20 μM ATP, syntide-2 substrate; read-out: Inhibitory Activity PKD2. The source says: (§1) The assay to measure protein kinase D2 (PKD2) activity is a time-resolved fluorescence resonance transfer (TR-FRET) assay using PerkinElmer's LANCE™ technology. In this case, a biotinylated syntide-2 peptide is used as the substrate in this reaction. Phosphorylation of the syntide-2 substrate is detected by a specific antibody that recognizes the phosphorylated peptide. A second fluorophore, APC, is conjugated to streptavidin that binds the biotinylated syntide-2 peptide. […] Therefore, when the europium labeled secondary antibody binds on the phosphorylated peptide, it is brought into close contact with the APC and excites this fluorophore.
(§2) This assay is performed with full length wild-type enzyme purchase from Invitrogen. The reaction buffer consists of 35 mM Tris-HCl pH7.5, 5 mM MgCl2, 0.02% Tween-20, 20 μM ATP, 1 mM DTT and 0.2 μg/mL PKD2 enzyme. The enzyme reaction is initiated by the addition of 2 μM syntide-2 peptide substrate and the reaction carried out for 50 minutes at room temperature. The reaction is stopped by a stop/detection Buffer consisting of 50 mM EDTA, 0.18 mg/mL rabbit polyclonal anti-phospho Syntide-2 antibody, 0.5 nM europium labeled anti-rabbit IgG and 10 nM streptavidin conjugated APC. After a one hour incubation with the stop/detection buffer, the reaction is read on an Envision 2100 Reader using a LANCE™ Eu/APC dual protocol. […] IC50 values are calculated using an Activity Base (IDBS) software program.

Assay [2] concerns agonist-dependent nuclear export of HDAC5. The assay can be described thus: HDAC5 nuclear export assay (GFP-HDAC5, Cellomics imaging). The class given is cell-based. Particulars: Rattus norvegicus, Ventricular myocyte, 2 h, read-out: Inhibitory Activity HDAC. As for the experimental part: Compounds are evaluated in the HDAC5 nuclear export assay, a 384-well plate-based assay that enables high throughput screening (HTS) to identify small molecules that block agonist-dependent nuclear export of HDAC5. […] Neonatal rat ventricular myocytes (NRVMs) are infected with GFP-HDAC5 encoding virus and plated on gelatin-coated 384-well dishes. […] Following two hours of stimulation, cells are fixed and GFP-HDAC5 localization quantified using the Cellomics system, which provides a read-out of relative fluorescence intensity in the cytoplasmic versus nuclear compartment.

Assay [3] concerns the target T2, protein kinase D1 (PKD1) (Homo sapiens, UniProt Q15139).
T2 construct: This assay is performed with full length wild-type enzyme that is expressed and purified from Sf9 insect cells; made in house; host or cells: Sf9 insect cells
T2 sequence (Q15139 1-912): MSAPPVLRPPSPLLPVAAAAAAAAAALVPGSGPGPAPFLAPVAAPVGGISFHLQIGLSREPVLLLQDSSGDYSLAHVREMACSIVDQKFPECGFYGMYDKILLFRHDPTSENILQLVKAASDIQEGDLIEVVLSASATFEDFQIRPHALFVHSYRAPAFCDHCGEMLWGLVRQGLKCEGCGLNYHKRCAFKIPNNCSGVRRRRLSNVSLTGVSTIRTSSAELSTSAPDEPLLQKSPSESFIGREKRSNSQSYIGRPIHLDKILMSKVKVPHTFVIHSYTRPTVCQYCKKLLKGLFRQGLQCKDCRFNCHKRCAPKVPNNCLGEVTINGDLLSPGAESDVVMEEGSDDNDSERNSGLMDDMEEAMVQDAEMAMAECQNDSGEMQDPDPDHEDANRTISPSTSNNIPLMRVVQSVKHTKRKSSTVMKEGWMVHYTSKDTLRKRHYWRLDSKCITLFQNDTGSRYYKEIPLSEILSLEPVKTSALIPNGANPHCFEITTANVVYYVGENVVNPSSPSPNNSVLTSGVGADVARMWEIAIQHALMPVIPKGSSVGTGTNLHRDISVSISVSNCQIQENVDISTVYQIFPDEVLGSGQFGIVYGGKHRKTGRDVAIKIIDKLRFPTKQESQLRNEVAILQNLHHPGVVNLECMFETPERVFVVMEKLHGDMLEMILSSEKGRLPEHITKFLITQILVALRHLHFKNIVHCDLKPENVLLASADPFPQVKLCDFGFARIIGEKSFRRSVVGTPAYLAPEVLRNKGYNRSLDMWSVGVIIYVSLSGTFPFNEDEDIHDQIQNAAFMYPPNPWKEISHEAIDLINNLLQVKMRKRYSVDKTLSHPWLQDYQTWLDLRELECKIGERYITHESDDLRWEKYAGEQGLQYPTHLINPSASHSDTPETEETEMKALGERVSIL
The experiment in a line: PKD1 TR-FRET (LANCE) kinase assay. Particulars: full length wild-type enzyme, 20 μM ATP, syntide-2 substrate; read-out: Inhibitory Activity PKD1. It is filed as biochemical.
Text: as §1, with “D1 (PKD1)” for “D2 (PKD2)”
as §2, with “that is expressed and purified” for “purchase”, “Sf9 insect cells.” for “Invitrogen.”, “PKD1” for “PKD2”, “APC.” for “APC. After a one hour incubation with the stop/detection buffer, the reaction is read on an Envision 2100 Reader using a LANCE™ Eu/APC dual protocol.”

Assay [4] concerns the target T3, protein kinase D3 (PKD3) (Homo sapiens, UniProt O94806).
T3 construct: This assay is performed with full length wild-type enzyme that is purchased from Invitrogen; purchased Invitrogen
T3 sequence (O94806 1-890): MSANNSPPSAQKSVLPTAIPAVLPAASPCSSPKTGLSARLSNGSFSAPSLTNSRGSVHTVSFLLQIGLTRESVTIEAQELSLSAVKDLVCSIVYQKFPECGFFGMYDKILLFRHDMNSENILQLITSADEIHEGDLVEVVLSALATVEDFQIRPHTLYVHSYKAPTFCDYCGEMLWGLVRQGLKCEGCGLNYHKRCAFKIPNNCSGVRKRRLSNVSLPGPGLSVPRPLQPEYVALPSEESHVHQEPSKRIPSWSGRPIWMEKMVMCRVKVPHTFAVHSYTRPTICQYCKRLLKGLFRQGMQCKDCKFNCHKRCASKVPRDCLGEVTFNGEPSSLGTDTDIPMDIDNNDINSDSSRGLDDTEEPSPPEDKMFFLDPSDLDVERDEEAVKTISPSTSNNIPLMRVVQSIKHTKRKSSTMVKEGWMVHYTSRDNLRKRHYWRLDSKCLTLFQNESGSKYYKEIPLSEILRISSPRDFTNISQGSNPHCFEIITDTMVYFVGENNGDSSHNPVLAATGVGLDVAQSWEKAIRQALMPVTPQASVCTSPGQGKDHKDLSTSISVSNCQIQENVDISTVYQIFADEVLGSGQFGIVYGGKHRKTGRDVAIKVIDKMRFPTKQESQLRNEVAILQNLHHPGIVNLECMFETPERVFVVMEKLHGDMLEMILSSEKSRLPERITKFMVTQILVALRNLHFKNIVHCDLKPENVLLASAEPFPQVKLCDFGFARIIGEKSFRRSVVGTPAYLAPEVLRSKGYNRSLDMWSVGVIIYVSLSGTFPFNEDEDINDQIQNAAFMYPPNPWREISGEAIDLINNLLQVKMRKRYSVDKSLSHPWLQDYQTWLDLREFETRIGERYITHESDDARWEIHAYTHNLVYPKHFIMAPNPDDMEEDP
The assay can be described thus: PKD3 TR-FRET (LANCE) kinase assay. The class given is biochemical. Particulars: full length wild-type enzyme, 20 μM ATP, syntide-2 substrate; read-out: Inhibitory Activity PKD3.
Text: as §1, with “D3 (PKD3)” for “D2 (PKD2)”
as §2, with “that is purchased” for “purchase”, “PKD3” for “PKD2”, “buffer” for “Buffer”
(In general: Time-resolved FRET reads energy transfer from a long-lived donor to a nearby acceptor.)

Regarding `Cn1ccc(Nc2cc(-c3cc(C#N)cc(N4CCNCC4)n3)ccn2)n1` [2′-(1-Methyl-1H-pyrazol-3-ylamino)-6-piperazin-1-yl-[2,4′]bipyridinyl-4-carbonitrile], the IC50 in assay [1] is 76 nM; in assay [2] (neonatal rat ventricular myocytes, PGF2α stimulation, two hours) it was above 1000 nM; in assay [3], 8 nM.

As for `C[C@@H]1CN(c2cc(C(N)=O)cc(-c3ccnc(NC4CCCCC4)c3)n2)CCN1` [2′-Cyclohexylamino-6-((R)-3-methylpiperazin-1-yl)-[2,4′]bipyridinyl-4-carboxylic acid amide], the IC50 in assay [1] worked out at 60 nM; in assay [2], 679 nM; in assay [3], 6 nM.

Take `CC(C)Nc1cc(-c2cc(-c3cn[nH]c3)cc(N3CCNCC3)n2)ccn1` [iso-Propyl-[6-piperazin-1-yl-4-(1H-pyrazol-4-yl)-[2,4′]bipyridinyl-2′-yl]-amine]: the results for the IC50 in assay [1], in assay [2] and in assay [4] were 3 nM, 92 nM and below 1 nM, respectively.
